Assay results reported in patent EP4806899A1, “FUSED RING DERIVATIVE, PREPARATION METHOD THEREFOR AND USE THEREOF IN MEDICINE” (Shanghai Qilu Pharmaceutical Research and Development …, priority 2023, dated 2025).

Assays:
[1] = target: T1, human CYP11B2 enzyme (Homo sapiens, UniProt P19099); test: Enzyme inhibition activity assay in G402 cells stably expressing human CYP11B2 (aldosterone production from 11-DOC, LC/MS); type: cell-based; conditions: 1 µM 11-DOC, 16 hours, aldosterone detected
T1 construct: the ORF of human CYP11B1 or CYP11B2 were transfected into G402 cells; expressed in transfected cells
T1 sequence (P19099 25-503): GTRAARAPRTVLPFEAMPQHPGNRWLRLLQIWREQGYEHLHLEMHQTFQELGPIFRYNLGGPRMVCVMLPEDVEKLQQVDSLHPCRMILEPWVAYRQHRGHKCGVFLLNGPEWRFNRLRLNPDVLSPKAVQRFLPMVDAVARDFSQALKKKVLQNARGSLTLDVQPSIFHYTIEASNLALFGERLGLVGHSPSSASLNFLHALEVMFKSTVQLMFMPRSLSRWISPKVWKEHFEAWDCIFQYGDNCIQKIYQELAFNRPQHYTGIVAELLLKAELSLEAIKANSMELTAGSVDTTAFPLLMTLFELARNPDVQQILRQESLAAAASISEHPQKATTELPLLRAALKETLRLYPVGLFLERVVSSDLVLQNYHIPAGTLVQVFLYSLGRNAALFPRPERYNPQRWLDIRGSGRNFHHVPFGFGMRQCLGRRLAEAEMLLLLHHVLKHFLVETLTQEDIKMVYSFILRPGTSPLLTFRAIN
Description: (§1) G402 cells (ATCC, CRL 1440) are epithelioid cells isolated from the kidney of a patient with renal failure and are a type of leiomyoblastoma. For the screening of highly specific CYP11B2 inhibitors, we specifically used G402 cell lines stably expressing human CYP11B2 enzyme or human CYP11B1 enzyme for experimental development.
(§2) Construction of Stably Transfected Cell Lines: Expression plasmids containing suitable promoters, suitable drug resistance markers, and the ORF of human CYP11B1 or CYP11B2 were transfected into G402 cells using standard techniques. The cells were then screened using the specific puromycin resistance marker. Monoclonal cells stably expressing human CYP11B2 were selected for expansion, and 11-deoxycorticosterone (11-DOC) was used as the specific substrate to evaluate enzyme activity based on aldosterone production. Monoclonal cells stably expressing human CYP11B1 were selected for expansion, and 11-deoxycortisol (11-DC) was used as the specific substrate, with cortisol production as the detection target for specific enzyme activity evaluation. The G402 cell lines stably expressing CYP11B1/CYP11B2 were cultured at 37 °C, 5% CO2, 95% air in complete medium (McCoy's 5A + 10% FBS + 1% PS + 0.5 µg/mL puromycin).
(§3) Enzyme Inhibition Activity Assay: CYP11B1 G402/CYP11B2 G402 cells were spread out flatly in cell culture plates. After 24 hours, the medium was changed to an enzyme testing system (DMEM/F12 + 2.5% charcoal-stripped FCS). Small molecule inhibitors at various concentrations were added. After 1 hour, appropriate concentrations of specific substrates (1 µM 11-DOC / 1 µM 11-DC) were added and co-incubated with the cells for 16 hours. Cells were then collected, and specific products were detected using LC/MS methods with an AB SCIEX TRIPLE QUAD 5500+, CTO-40S instrument (CYP11B2 enzyme detecting aldosterone; CYP11B1 enzyme detecting cortisol).
(§4) The IC50 values of the compounds were determined based on the G402 testing system. The dose-dependent inhibition of enzyme activity was calculated by plotting the added inhibitor concentration (x-axis) against the percentage of product inhibitory activity relative to the control group (y-axis) based on product formation at various compound concentrations. The following data were then fitted using the least squares method with XLfit 5.5.0 for a four-parameter logistic curve fit: [formula] • Y-axis: Percentage of product inhibitory activity relative to the control group; • logIC50: IC50 was determined using XLFit.
(§5) The maximum enzyme activity corresponds to the amount of control product steroid/aldosterone in the absence of inhibitor, set as 100%. The minimum enzyme activity corresponds to the amount of reference control product steroid/aldosterone in the presence of inhibitor. Table 3 Inhibitory Activity of the Compounds of the Present Disclosure on CYP11B2 and CYP11B1

[2] = target: T2, human CYP11B1 enzyme (Homo sapiens, UniProt P15538); test: Enzyme inhibition activity assay in G402 cells stably expressing human CYP11B1 (cortisol production from 11-DC, LC/MS); type: cell-based; conditions: 1 µM 11-DC, 16 hours, cortisol detected
T2 construct: the ORF of human CYP11B1 or CYP11B2 were transfected into G402 cells; expressed in transfected cells
T2 sequence (P15538 25-503): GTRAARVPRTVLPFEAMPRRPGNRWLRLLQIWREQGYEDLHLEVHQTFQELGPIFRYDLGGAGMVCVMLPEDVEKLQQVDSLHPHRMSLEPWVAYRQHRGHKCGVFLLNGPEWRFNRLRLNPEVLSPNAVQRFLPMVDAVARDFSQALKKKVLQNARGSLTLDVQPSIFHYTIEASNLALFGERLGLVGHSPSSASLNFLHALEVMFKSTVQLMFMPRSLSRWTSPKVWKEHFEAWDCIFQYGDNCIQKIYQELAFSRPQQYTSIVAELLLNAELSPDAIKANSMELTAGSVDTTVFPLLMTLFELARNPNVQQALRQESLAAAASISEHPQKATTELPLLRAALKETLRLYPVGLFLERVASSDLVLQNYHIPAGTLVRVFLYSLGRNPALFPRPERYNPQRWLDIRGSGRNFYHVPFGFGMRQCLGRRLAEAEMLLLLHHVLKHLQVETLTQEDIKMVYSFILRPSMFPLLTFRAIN
Description: as §1, §2, §3, §4, §5

Row | Compound | IC50 [1] [µM] | IC50 [2] [µM]
1 | CCC(=O)N[C@@H]1COCc2c(-c3ccc4c(c3)CCC(=O)N4C)cncc21 [Compound A01] | 0.0417 | –
2 | CCC(=O)N[C@@H]1CC=Cc2c(-c3ccc4c(c3)CCC(=O)N4C)cncc21 [Compound A04-P1] | 0.0056 | 0.244
3 | [2H]C([2H])([2H])NC(=O)N[C@@H]1CCOc2c(-c3ccc4c(c3)CCC(=O)N4C)cncc21 [Compound A11] | 0.0073 | 1.26
4 | CN(C)C(=O)N[C@@H]1CCOc2c(-c3ccc4c(c3)CCC(=O)N4C)cncc21 [Compound A12] | 0.0126 | 3.12
5 | [2H]C([2H])([2H])OC(=O)N[C@@H]1CCOc2c(-c3ccc4c(c3)CCC(=O)N4C)cncc21 [Compound A13] | 0.0045 | 0.381
6 | COC(=O)N[C@@H]1CCOc2c(-c3ccc4c(c3)CCC(=O)N4C)cncc21 [Compound A14] | 0.0023 | 0.202
7 | [2H]C([2H])([2H])NC(=O)N[C@@H]1CCCc2c(-c3ccc4c(ccc(=O)n4C)c3)cncc21 [Compound A15] | 0.0099 | –
8 | [2H]C([2H])([2H])NC(=O)N[C@@H]1CCOc2c(-c3ccc4c(ccc(=O)n4C)c3)cncc21 [Compound A17] | 0.0231 | –
9 | [2H]C([2H])([2H])NC(=O)N[C@@H]1CCOc2c(-c3ccc4c(c3)COC(=O)N4C)cncc21 [Compound A18] | 0.0075 | 0.517
10 | CCC(=O)N[C@@H]1CCOc2c(-c3ccc4c(c3)OCC(=O)N4C)cncc21 [Compound A19] | 0.0355 | –
11 | CCC(=O)N[C@@H]1CCOc2c(-c3cc(F)c4c(ccc(=O)n4C)c3)cncc21 [Compound A20] | 0.0291 | –
12 | CNC(=O)N[C@@H]1CCCc2c(-c3ccc4c(ccc(=O)n4C)c3)cncc21 [Compound A21] | 0.0094 | 0.739
13 | [2H]C([2H])([2H])NC(=O)N[C@@H]1CCCc2c(-c3cc(F)c4c(ccc(=O)n4C)c3)cncc21 [Compound A22] | 0.0076 | 1.19
14 | CN(C)C(=O)N[C@@H]1CCCc2c(-c3ccc4c(ccc(=O)n4C)c3)cncc21 [Compound A23] | 0.0125 | 1.92
15 | CNC(=O)N[C@@H]1CCCc2c(-c3ccc4c(c3)OCC(=O)N4C)cncc21 [Compound A24] | 0.0117 | 1.55
16 | [2H]C([2H])([2H])NC(=O)N[C@@H]1CCCc2c(-c3ccc4c(c3)OCC(=O)N4C)cncc21 [Compound A25] | 0.0149 | 2.15
17 | CN(C)C(=O)N[C@@H]1CCCc2c(-c3ccc4c(c3)OCC(=O)N4C)cncc21 [Compound A26] | 0.019 | –
18 | [2H]C([2H])([2H])OC(=O)N[C@@H]1CCCc2c(-c3ccc4c(ccc(=O)n4C)c3)cncc21 [Compound A27] | 0.005 | 0.213
19 | [2H]C([2H])([2H])OC(=O)N[C@@H]1CCCc2c(-c3ccc4c(c3)COC(=O)N4C)cncc21 [Compound A28] | 0.0036 | 0.111
20 | [2H]C([2H])([2H])OC(=O)N[C@@H]1CCCc2c(-c3ccc4c(c3)OCC(=O)N4C)cncc21 [Compound A29] | 0.0088 | 0.479
21 | [2H]C([2H])([2H])NC(=O)N[C@@H]1CCOc2c(-c3ccc4c(c3)OCC(=O)N4C)cncc21 [Compound A32] | 0.0347 | –
22 | CN(C)C(=O)N[C@@H]1CCCc2c(-c3ccc4c(c3)COC(=O)N4C)cncc21 [Compound A33] | 0.0097 | 0.312
23 | CNC(=O)N[C@@H]1CCCc2c(-c3ccc4c(c3)COC(=O)N4C)cncc21 [Compound A34] | 0.0075 | 0.294

Row | Compound | IC50 [1] [µM] | IC50 [2] [µM]
24 | COC(=O)N[C@@H]1CCOc2c(-c3ccc4c(c3)cc(C#N)n4C)cncc21 [Compound A35] | 0.0014 | 0.184
25 | [2H]C([2H])([2H])OC(=O)N[C@@H]1CCOc2c(-c3ccc4c(c3)cc(C#N)n4C)cncc21 [Compound A36] | 0.0013 | 0.136
26 | CNC(=O)N[C@@H]1CCOc2c(-c3ccc4c(c3)cc(C#N)n4C)cncc21 [Compound A37] | 0.0025 | 0.311
27 | [2H]C([2H])([2H])NC(=O)N[C@@H]1CCOc2c(-c3ccc4c(c3)cc(C#N)n4C)cncc21 [Compound A38] | 0.0023 | 0.283
28 | [2H]C([2H])([2H])OC(=O)N[C@@H]1CCOc2c(-c3ccc4c(ccc(=O)n4C)c3)cncc21 [Compound A39] | 0.0101 | 1.45
29 | [2H]C([2H])([2H])OC(=O)N[C@@H]1CCOc2c(-c3ccc4c(c3)COC(=O)N4C)cncc21 [Compound A40] | 0.0061 | 0.487
30 | [2H]C([2H])([2H])OC(=O)N[C@@H]1CCOc2c(-c3ccc4c(c3)OCC(=O)N4C)cncc21 [Compound A41] | 0.0289 | –
31 | COC(=O)N[C@@H]1CCOc2c(-c3ccc4c(c3)OCC(=O)N4C)cncc21 [Compound A44] | 0.0219 | –
32 | CCC(=O)N[C@@H]1CCOc2c(-c3cc(F)c4c(c3)cc(C#N)n4C)cncc21 [Compound A55] | 0.0045 | –
33 | CCC(=O)N[C@@H]1CCOc2c(-c3cc(Cl)c4c(c3)cc(C#N)n4C)cncc21 [Compound A56] | 0.0116 | –
34 | CCC(=O)NC1CCCc2c(-c3cnc4c(c3)CCCN4C(N)=O)cncc21 (centres unmarked) [Compound C02] | 0.0169 | –
35 | CCC(=O)N[C@@H]1CCCc2c(-c3ccc4c(c3)cc(F)c(=O)n4C)cncc21 [Compound C16] | 0.0433 | –
36 | CCC(=O)N[C@@H]1CCCc2c(-c3ccc4c(cnn4C)c3)cncc21 [Compound C21] | 0.0265 | –
37 | CCC(=O)N[C@@H]1CCCc2c(-c3ccc4c(c3)CC(=O)N4C)cncc21 [Compound C24] | 0.0242 | –
38 | CCC(=O)N[C@@H]1CCCc2c(-c3ccc4c(ccc(=O)n4C(F)F)c3)cncc21 [Compound C33] | 0.0327 | –
39 | CCC(=O)N[C@@H]1CCCc2c(-c3ccc4c(ccc(=O)n4C)c3F)cncc21 [Compound C45] | 0.033 | –
40 | CNC(=O)N[C@@H]1CCCc2c(-c3ccc4c(c3)CCC(=O)N4C)cncc21 [Compound D01] | 0.0059 | –
41 | CN1C(=O)CCc2cc(-c3cncc4c3CCC[C@H]4N3CCCC3=O)ccc21 [Compound D03] | 0.0081 | –
42 | COC(=O)N[C@@H]1CCCc2c(-c3ccc4c(c3)CCC(=O)N4C)cncc21 [Compound D05] | 0.0034 | –
43 | C[C@@H](F)C(=O)N[C@@H]1CCCc2c(-c3ccc4c(c3)CCC(=O)N4C)cncc21 [Compound D07-P1] | 0.0339 | –
44 | CCNC(=O)N[C@@H]1CCCc2c(-c3ccc4c(c3)CCC(=O)N4C)cncc21 [Compound D09] | 0.0282 | –
45 | CN1C(=O)CCc2cc(-c3cncc4c3CCC[C@H]4N3CCC4(CC4)C3=O)ccc21 [Compound D14] | 0.013 | –
46 | CN1C(=O)CCc2cc(-c3cncc4c3CCC[C@H]4NC(=O)N3CCC3)ccc21 [Compound D17] | 0.0333 | –
